Experimental data: patent US6576607B1, “Methods using CNS neurite outgrowth modulators” (Acorda Therapeutics, priority 1995, dated 2003)

Assays:
[1] = system: mouse mesencephalon cells; assay: Mesencephalon cells cultured on L1-coated plates, stained for dopamine; format: cell-based; details: plates coated with laminin, 7 days
Experimental: An experiment was performed to further elucidate the activity of L1 with CNS nerve tissue. Specifically, aliquot samples of mouse mesencephalon cells were plated and cultured on four separate plates having media prepared as follows: the first control plate was coated with poly-L-lysine alone; a second plate was coated with poly-L-lysine and L1; a third control plate was coated with poly-L-lysine and laminin; and a fourth plate was coated with poly-L-lysine, laminin and L1. All plates received aliquot amounts of cells and were incubated under identical conditions. After 7 days, the plates were all stained for the presence of dopamine and thereafter observed.

[2] = system: mesencephalic neurons (DBH+); assay: Survival and neurite outgrowth of DBH+ mesencephalic neurons; format: cell-based, rat; details: DBH+ neurons after 7 days in vitro, mean ± SEM
Experimental: Soluble L1 was made in COS cells as a recombinant L1-Fc fusion protein by the procedure described in Neuron 14:57-66, 1995. The recombinant protein was purified by Protein A affinity chromatography, and was used either as a substrate coated onto plastic or as a soluble molecule added to the culture medium at approximately 1-10 μg/ml. Neurite outgrowth and survival of mesencephalic neurons from day 17 rat embryos were examined in culture after 7 days in vitro maintenance. Dopaminergic neurons were recognized by immunostaining for dopamine-β-hydroxylase (DBH) and quantified using IBAS morphometric equipment. Cultures with added soluble L1-Fc were maintained on poly-DL-ornithine (PORN) and substrate-coated L1-Fc was added on top of previously coated PORN (under conditions described in Appel et al, J. Neuroscience 13:4764-4775, 1993). NCAM-Fc was used as a control.

small cerebellar neurons = assay: Neurite outgrowth of small cerebellar neurons on substrate-coated L1 monoclonal antibodies; format: cell-based; details: neurons on L1 and antibody 557.B6
From the text: To determine the domains of neural cell adhesion molecule L1 involved in neurite outgrowth, monoclonal antibodies against L1 were generated and their effects on neurite outgrowth of small cerebellar neurons in culture investigated. […] These observations indicate for the first time a distinct site on cell surface-bound L1 as a prominent signal transducing domain through which the recognition events appear to be funnelled to trigger neurite outgrowth, increase turnover of inositol phosphates and elevate intracellular levels of Ca^2+.

[3] = system: pyramidal neurons in the CA1 region of rat hippocampal slices; assay: Long term potentiation (LTP) induced by theta burst stimulation in hippocampal slices; format: cell-based; details: perfusion of 10 μM
Experimental: Transverse hippocampal slices (400 μm) from halothane-anaesthetized male Wistar rats (180-220 g) were prepared using standard techniques. Slices were maintained in an interface chamber and initially allowed to recover for 45 min. in a hyperosmolar (320 mOsm/kg) artificial cerebrospinal fluid (ACSF) at room temperature. The bath temperature was then raised to 30° C. and the medium was changed to a normotonic ACSF (307 mOsm/kg) containing (in mM): NaCl, 124.0; KCl, 2.5; MgSO24, 2.0: CaCl2, 2.5; KH2PO4, 1.25; NaHCO3, 26.0; glucose, 10; sucrose, 4; bubbled with 95% O2/5% CO2 (pH 7.4); perfusion rate: 0.75 ml/min. The Schaffer collateral/commissural fibers were stimulated by twisted platinum-iridium wires (50 μm diameter) placed in the stratum radiatum of the CA1 region. Test stimuli consisted in monophasic impulses of 100 μs duration every 30 seconds and the stimulus strength was adjusted to obtain 30% of the maximal EPSP amplitude (maximal EPSP without superimposed population spike). EPSP's were recorded from the CA1 stratum radiatum by means of 2 glass micropipettes (2 M NaCl, 1-5 MΩ) positioned about […] apart from the stimulation electrode on each side. […]

NMDA receptor = assay: NMDA receptor-mediated EPSPs in hippocampal slices; format: cell-based, rat; details: 30 μM, in the presence of CNQX
Experimental: NMDA receptor-mediated EPSP's were isolated by applying 30 μM of the non-NMDA blocker 6-cyano-7-nitroquinoxaline-2,3-dione (CNQX; Tocris) starting 20 minutes prior to the application of antibodies or glycopeptides.

cerebellar neurons = assay: Neurite outgrowth of small cerebellar neurons in coculture with L929 transfectants; format: cell-based, mouse; details: CHL1-transfected L929 cells, 20 h
Experimental: CHL1 activity was also tested with cerebellar neurons as set forth with reference to FIG. 29. Thus, cerebellar neurons derived from 6-7 day old mice were cultured for 20 h on CHL1-transfectants (CHL1), CHL1-transfected non-expressing L929 cells (Mock), parental L929, or L1-transfectants (L1). The results are likewise set forth in paragraphs that correspond in designation to the sub-figures within FIG. 29. […] The mean of total neurite length of three experiments is shown. Error bars are standard error of the mean. (B) CHL1 promotes neurite outgrowth also of small cerebellar neurons better than L1. The total neurite length is given as percent of L929 cells as a control (ctr). Error bars are standard error of the mean. (C) Increase of neurite outgrowth of cerebellar neurons by CHL1 affects all size classes of neurites. Cumulative frequency of distribution plot of the total neurite length of the percentage of neurons with neurites longer than or equal to a certain length x (vertical axis) was plotted as a function of neurite length x (horizontal axis).

hippocampal neurons = assay: Neurite outgrowth of hippocampal neurons in coculture with L929 transfectants; format: cell-based, rat; details: CHL1-transfected L929 cells, 11-12 h coculture
Experimental: In addition to the studies conducted and reviewed above, further experiments were conducted withy CHL1 to define its role in neurite outgrowth and the parameters of its action. Thus and as depicted and described earlier with reference to FIGS. 28A-C, hippocampal neurons were co-cultured with L929 transfectants and L929 parental cells. Particularly, hippocampal neurons derived from rats of embryonal day 18 were cultured in subconfluent monolayers of L929-transfectants or parental L929 cells. After 11-12 h of coculture the cells were fixed and labeled with monoclonal antibody 412 (recognizing the HNK-1 carbohydrate epitope) or a polyclonal antibody against NCAM. For measurement of the total neurite length only the longest neurite per each branch was determined due to the highly branched character of the neurons in these cultures. The results of the experiments are given below with letter reference to the respective figures within FIG. 28. […] Neurons were cocultured with CHL1-transfectants (CHL1) or parental L929 cells (L929) with (+AB) or without polyclonal antibodies against recombinant CHL1 (500 μg/ml of purified IgG, added 45 min after plating) and on L1-transfectants. The mean total neurite length of 4-5 independent experiments is shown. Error bars are standard error of the mean. (B) Different CHL1 lines promote neurite outgrowth better than L1. […]

Molecule: laminin
- neurite outgrowth and cell number [1]: greater neurite outgrowth, but not more cells than those coated with L1

Molecule: soluble L1: recombinant L1-Fc fusion protein made in COS cells, added to the culture medium at 1-10 μg/ml
- number of neurons ([2]; per unit field): 98 ± 7
- length of neurites (total neurite length per neuron) [2]: 135 ± 27 μm

Molecule: pertussis toxin
- inhibition of neurite outgrowth (small cerebellar neurons): inhibit neurite outgrowth on L1 and antibody 557.B6

Molecule: N[C@H](CCCP(=O)(O)O)C(=O)O [D-AP5, D(−)-2-amino-5-phosphonopentanoic acid]
- induction of LTP [3]: totally prevented
- NMDA receptor-mediated EPSPs (NMDA receptor): completely suppressed

B1: CHL1: close homolog of L1, presented by CHL1-transfected L929 cells (protein)
chain: MMELPLCGRGLILSLIFLLLKLSAAEIPLSVQQVPTIVKQSYVQVAFPFDEYFQIECEAKGNPEPIFSWTKDDKPFDLSDPRIIAANNSGTFKIPNEGHISHFQGKYRCFASNRLGTAVSEEIEFIVPGVPKFPKEKIEPIDVEEGDSIVLPCNPPKGLPPLHIYWMNIELEHIEQDERVYMSQRGDLYFANVEENDSRNDYCCFAAFPKLRTIVQKMPMKLTVNSSNSIKQRKPKLLLPPAQMGSLSAKTVLKGDTLLLECFAEGLPTPHIQWSKPGSELPEGRATIEVHEKTLKIENISYQDRGNYRCTANNLLGKASHDFHVTVEEPPRWKKKPQSAVYSTGSSGILLCEAEGEPQPTIKWRLNGLPIEKHPFPGDFMFPREISFTNLLFNHTGVYQCEASNIHGTILANANIDVIDVIPLIKTKNEENYATVVGYSAFLHCEYFASPKATVVWEVADETHPLEGDRYHTHENGTLEIYRTTEEDAGSYSCWVDNAMGKAVITANLDIRNATKLRVSPKNPRIPKSHVLELYCESQCDSHLKHSLKLSWSKDGEAFEMNGTEDGRIVIDGAYLTISNITAEDQGVYSCSAQTSLDSTSEKTQVTVLGVPDPPETFTCQKDKNRSVRLLREAGDDHNSKSASTIVEFEGNREEPGKWEELTRVQGEETDVVLSLAPYVRYQFRVTAVNEVGRSHASLPSDHHETPPAAPDKNPQNIRVQASQPKEMIIKWEPLKSMEQNGPGLEYKVSWKPQGAPEEWEEEIVTNHTLRVMTPTVYAPYDVKVQAINQLGSSPDPQPVTLYSGEDYPSTAPVIQRVDVMNSTLVKVTWSSIPKETVHGLLRGYQINWWKTKSLLDGRTHPKEVNILRFSGQRNSGMVPSLDPFSEFHLTVLAYNSKGAGPESEPYIFQTPEGVPEQPSFLKVIKVDKDTATLSWGLPKKLNGNLTGYLLQYQIINDTYELGELNEINVTTPSKSSWHLSNLNSTTKYKFYLRACTSRGCGKPISEEGATLGEGSKGIRKITEGVNVTQKIHPVEVLVPGAEHIVHLMTKNWGDNDSIFQDVIETRGREYAGLYDDISTQGWFIGLMCAIALLTLILLTICFVKRNRGGKYSVKEKEDLHPDPEVQSAKDETFGEYSDSDEKPLKGSLRSLNRNMQPTESADSLVEYGEGDQSIFNEDGSFIGAYTGAKEKGSVESNGSSTATFPLRA
modifications: murine
notes: close homolog of L1, presented by CHL1-transfected L929 cells
- neurite outgrowth (cerebellar neurons): promotes neurite outgrowth of small cerebellar neurons
- neurite outgrowth (hippocampal neurons): Neurite outgrowth is promoted by CHL1 and inhibitable by antibodies
